Columns and labels:
[1] = molecular target: Tyrosine-protein kinase ABL1 (Homo sapiens) (UniProt P00519); conditions: Compound concentration 1000.0 nM
[2] = molecular target: Tyrosine-protein kinase ABL1 (Homo sapiens) (UniProt P00519); conditions: Compound concentration 1000.0 nM; remark: listed apart in the source
[3] = tested on: ALK tyrosine kinase receptor (Homo sapiens), Q9UM73 [C1156Y]; conditions: Compound concentration 1000.0 nM
[4] = tested on: ALK tyrosine kinase receptor (Homo sapiens), Q9UM73 [L1196M]; conditions: Compound concentration 1000.0 nM
[5] = molecular target: Mitotic checkpoint serine/threonine-protein kinase BUB1 (Homo sapiens) (UniProt O43683); conditions: Compound concentration 1000.0 nM
[6] = molecular target: Cyclin-dependent kinase 4 (Homo sapiens) (UniProt P11802); conditions: Compound concentration 1000.0 nM
[7] = molecular target: Cyclin-dependent kinase 4 (Homo sapiens) (UniProt P11802); conditions: Compound concentration 1000.0 nM; remark: listed apart in the source
[8] = molecular target: Casein kinase I isoform gamma-1 (Homo sapiens) (UniProt Q9HCP0); conditions: Compound concentration 1000.0 nM
[9] = molecular target: Epithelial discoidin domain-containing receptor 1 (Homo sapiens) (UniProt Q08345); conditions: Compound concentration 1000.0 nM
[10] = molecular target: Serine/threonine-protein kinase MRCK gamma (Homo sapiens) (UniProt Q6DT37); conditions: Compound concentration 1000.0 nM
[11] = tested on: Epidermal growth factor receptor (Homo sapiens), P00533 [G719C]; conditions: Compound concentration 1000.0 nM
[12] = tested on: Epidermal growth factor receptor (Homo sapiens), P00533 [UNDEFINED MUTATION]; conditions: Compound concentration 1000.0 nM
[13] = molecular target: Mitogen-activated protein kinase 6 (Homo sapiens) (UniProt Q16659); conditions: Compound concentration 1000.0 nM
[14] = molecular target: Mitogen-activated protein kinase 4 (Homo sapiens) (UniProt P31152); conditions: Compound concentration 1000.0 nM
[15] = tested on: Fibroblast growth factor receptor 3 (Homo sapiens), P22607 [G697C]; conditions: Compound concentration 1000.0 nM
[16] = tested on: Receptor-type tyrosine-protein kinase FLT3 (Homo sapiens), P36888 [D835Y]; conditions: Compound concentration 1000.0 nM
[17] = molecular target: Homeodomain-interacting protein kinase 4 (Homo sapiens) (UniProt Q8NE63); conditions: Compound concentration 1000.0 nM
[18] = molecular target: Inhibitor of nuclear factor kappa-B kinase subunit beta (Homo sapiens) (UniProt O14920); conditions: Compound concentration 1000.0 nM
[19] = molecular target: Insulin receptor (Homo sapiens) (UniProt P06213); conditions: Compound concentration 1000.0 nM
[20] = molecular target: Interleukin-1 receptor-associated kinase 3 (Homo sapiens) (UniProt Q9Y616); conditions: Compound concentration 1000.0 nM
[21] = tested on: Mast/stem cell growth factor receptor Kit (Homo sapiens), P10721 [D816H]; conditions: Compound concentration 1000.0 nM
[22] = molecular target: Mitogen-activated protein kinase kinase kinase kinase 3 (Homo sapiens) (UniProt Q8IVH8); conditions: Compound concentration 1000.0 nM
[23] = molecular target: Mitogen-activated protein kinase kinase kinase kinase 4 (Homo sapiens) (UniProt O95819); conditions: Compound concentration 1000.0 nM
[24] = molecular target: Serine/threonine-protein kinase MARK1 (Homo sapiens) (UniProt Q9P0L2); conditions: Compound concentration 1000.0 nM
[25] = molecular target: MAP/microtubule affinity-regulating kinase 4 (Homo sapiens) (UniProt Q96L34); conditions: Compound concentration 1000.0 nM
[26] = molecular target: Dual specificity mitogen-activated protein kinase kinase 4 (Homo sapiens) (UniProt P45985); conditions: Compound concentration 1000.0 nM
[27] = molecular target: Misshapen-like kinase 1 (Homo sapiens) (UniProt Q8N4C8); conditions: Compound concentration 1000.0 nM
[28] = molecular target: Mitogen-activated protein kinase kinase kinase 11 (Homo sapiens) (UniProt Q16584); conditions: Compound concentration 1000.0 nM
[29] = molecular target: Serine/threonine-protein kinase mTOR (Homo sapiens) (UniProt P42345); conditions: Compound concentration 1000.0 nM
[30] = molecular target: Myosin-IIIb (Homo sapiens) (UniProt Q8WXR4); conditions: Compound concentration 1000.0 nM
[31] = molecular target: Serine/threonine-protein kinase PAK 6 (Homo sapiens) (UniProt Q9NQU5); conditions: Compound concentration 1000.0 nM
[32] = molecular target: Serine/threonine-protein kinase PAK 5 (Homo sapiens) (UniProt Q9P286); conditions: Compound concentration 1000.0 nM
[33] = molecular target: Cyclin-dependent kinase 16 (Homo sapiens) (UniProt Q00536); conditions: Compound concentration 1000.0 nM
[34] = molecular target: Cyclin-dependent kinase 17 (Homo sapiens) (UniProt Q00537); conditions: Compound concentration 1000.0 nM
[35] = molecular target: Cyclin-dependent kinase 18 (Homo sapiens) (UniProt Q07002); conditions: Compound concentration 1000.0 nM
[36] = tested on: Phosphatidylinositol 4,5-bisphosphate 3-kinase catalytic subunit alpha isoform (Homo sapiens), P42336 [E542K]; conditions: Compound concentration 1000.0 nM
[37] = molecular target: Phosphatidylinositol 5-phosphate 4-kinase type-2 beta (Homo sapiens) (UniProt P78356); conditions: Compound concentration 1000.0 nM
[38] = molecular target: Protein kinase C epsilon type (Homo sapiens) (UniProt Q02156); conditions: Compound concentration 1000.0 nM
[39] = molecular target: Serine/threonine-protein kinase RIO3 (Homo sapiens) (UniProt O14730); conditions: Compound concentration 1000.0 nM
[40] = molecular target: Ribosomal protein S6 kinase alpha-4 (Homo sapiens) (UniProt O75676); conditions: Compound concentration 1000.0 nM
[41] = molecular target: Ribosomal protein S6 kinase alpha-6 (Homo sapiens) (UniProt Q9UK32); conditions: Compound concentration 1000.0 nM
[42] = molecular target: Ribosomal protein S6 kinase beta-1 (Homo sapiens) (UniProt P23443); conditions: Compound concentration 1000.0 nM
[43] = molecular target: NUAK family SNF1-like kinase 2 (Homo sapiens) (UniProt Q9H093); conditions: Compound concentration 1000.0 nM
[44] = molecular target: TGF-beta receptor type-1 (Homo sapiens) (UniProt P36897); conditions: Compound concentration 1000.0 nM
[45] = molecular target: Muscarinic acetylcholine receptor M5 (Homo sapiens) (UniProt P08912); conditions: Compound concentration 10.0 uM

Cyclin-dependent kinase 4 (Homo sapiens), sequence (P11802 whole entry, canonical isoform): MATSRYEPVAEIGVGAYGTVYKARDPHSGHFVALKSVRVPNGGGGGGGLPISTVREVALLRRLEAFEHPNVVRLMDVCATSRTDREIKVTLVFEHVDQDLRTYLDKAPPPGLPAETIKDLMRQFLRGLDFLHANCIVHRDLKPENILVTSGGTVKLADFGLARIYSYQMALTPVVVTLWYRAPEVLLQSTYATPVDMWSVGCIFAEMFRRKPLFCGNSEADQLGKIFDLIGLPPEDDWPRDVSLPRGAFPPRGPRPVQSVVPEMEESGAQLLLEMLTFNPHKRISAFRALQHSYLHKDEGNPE
Tyrosine-protein kinase ABL1 (Homo sapiens), sequence (P00519 whole entry): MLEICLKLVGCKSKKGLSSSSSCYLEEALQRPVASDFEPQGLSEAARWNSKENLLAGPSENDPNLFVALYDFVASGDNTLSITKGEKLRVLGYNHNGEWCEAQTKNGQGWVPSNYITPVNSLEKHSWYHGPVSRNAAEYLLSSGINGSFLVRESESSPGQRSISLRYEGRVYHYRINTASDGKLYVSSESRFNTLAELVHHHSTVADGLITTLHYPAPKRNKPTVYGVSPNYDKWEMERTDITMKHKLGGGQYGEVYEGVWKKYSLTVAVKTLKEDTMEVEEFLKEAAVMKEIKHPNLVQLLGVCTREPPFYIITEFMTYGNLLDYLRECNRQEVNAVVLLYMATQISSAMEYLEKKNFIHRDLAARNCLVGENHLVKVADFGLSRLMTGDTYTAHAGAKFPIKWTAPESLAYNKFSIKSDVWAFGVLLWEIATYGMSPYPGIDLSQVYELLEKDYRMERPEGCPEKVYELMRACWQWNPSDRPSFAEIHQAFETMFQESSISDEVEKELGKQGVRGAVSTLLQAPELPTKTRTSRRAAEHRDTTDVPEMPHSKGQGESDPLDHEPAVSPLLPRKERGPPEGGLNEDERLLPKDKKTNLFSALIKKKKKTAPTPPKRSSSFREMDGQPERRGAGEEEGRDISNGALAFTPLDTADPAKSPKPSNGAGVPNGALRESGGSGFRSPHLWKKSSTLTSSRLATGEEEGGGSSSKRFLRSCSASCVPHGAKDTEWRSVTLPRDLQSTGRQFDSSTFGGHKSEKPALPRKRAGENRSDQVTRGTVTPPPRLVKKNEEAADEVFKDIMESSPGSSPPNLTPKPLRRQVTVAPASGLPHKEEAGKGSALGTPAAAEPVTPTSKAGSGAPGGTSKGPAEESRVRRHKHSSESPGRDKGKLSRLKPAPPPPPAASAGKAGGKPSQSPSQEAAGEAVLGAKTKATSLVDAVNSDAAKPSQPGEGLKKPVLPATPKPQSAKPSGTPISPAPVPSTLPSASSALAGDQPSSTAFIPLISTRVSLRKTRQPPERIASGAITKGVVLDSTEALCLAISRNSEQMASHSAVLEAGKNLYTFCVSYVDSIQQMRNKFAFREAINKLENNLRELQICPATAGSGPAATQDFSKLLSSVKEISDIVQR
Mitogen-activated protein kinase 6 (Homo sapiens), sequence (Q16659 whole entry): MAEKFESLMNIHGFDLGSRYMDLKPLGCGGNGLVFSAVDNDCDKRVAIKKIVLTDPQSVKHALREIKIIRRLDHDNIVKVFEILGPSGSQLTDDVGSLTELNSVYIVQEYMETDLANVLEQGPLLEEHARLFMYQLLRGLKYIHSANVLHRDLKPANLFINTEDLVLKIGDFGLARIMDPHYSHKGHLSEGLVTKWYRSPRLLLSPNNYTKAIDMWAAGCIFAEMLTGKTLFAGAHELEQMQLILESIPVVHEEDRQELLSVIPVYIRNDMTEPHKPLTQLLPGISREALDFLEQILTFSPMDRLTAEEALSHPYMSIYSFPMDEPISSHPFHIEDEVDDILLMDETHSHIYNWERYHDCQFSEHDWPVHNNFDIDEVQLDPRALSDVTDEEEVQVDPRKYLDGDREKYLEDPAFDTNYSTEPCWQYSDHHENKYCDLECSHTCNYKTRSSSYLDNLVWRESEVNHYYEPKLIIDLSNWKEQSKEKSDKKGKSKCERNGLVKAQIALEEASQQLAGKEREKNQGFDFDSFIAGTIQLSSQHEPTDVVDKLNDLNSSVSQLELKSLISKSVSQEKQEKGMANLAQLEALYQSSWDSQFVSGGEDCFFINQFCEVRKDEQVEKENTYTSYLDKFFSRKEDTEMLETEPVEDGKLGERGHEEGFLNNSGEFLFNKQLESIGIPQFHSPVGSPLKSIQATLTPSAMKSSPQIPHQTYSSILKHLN
Mast/stem cell growth factor receptor Kit (Homo sapiens), P10721 [D816H], sequence (P10721 whole entry D816H): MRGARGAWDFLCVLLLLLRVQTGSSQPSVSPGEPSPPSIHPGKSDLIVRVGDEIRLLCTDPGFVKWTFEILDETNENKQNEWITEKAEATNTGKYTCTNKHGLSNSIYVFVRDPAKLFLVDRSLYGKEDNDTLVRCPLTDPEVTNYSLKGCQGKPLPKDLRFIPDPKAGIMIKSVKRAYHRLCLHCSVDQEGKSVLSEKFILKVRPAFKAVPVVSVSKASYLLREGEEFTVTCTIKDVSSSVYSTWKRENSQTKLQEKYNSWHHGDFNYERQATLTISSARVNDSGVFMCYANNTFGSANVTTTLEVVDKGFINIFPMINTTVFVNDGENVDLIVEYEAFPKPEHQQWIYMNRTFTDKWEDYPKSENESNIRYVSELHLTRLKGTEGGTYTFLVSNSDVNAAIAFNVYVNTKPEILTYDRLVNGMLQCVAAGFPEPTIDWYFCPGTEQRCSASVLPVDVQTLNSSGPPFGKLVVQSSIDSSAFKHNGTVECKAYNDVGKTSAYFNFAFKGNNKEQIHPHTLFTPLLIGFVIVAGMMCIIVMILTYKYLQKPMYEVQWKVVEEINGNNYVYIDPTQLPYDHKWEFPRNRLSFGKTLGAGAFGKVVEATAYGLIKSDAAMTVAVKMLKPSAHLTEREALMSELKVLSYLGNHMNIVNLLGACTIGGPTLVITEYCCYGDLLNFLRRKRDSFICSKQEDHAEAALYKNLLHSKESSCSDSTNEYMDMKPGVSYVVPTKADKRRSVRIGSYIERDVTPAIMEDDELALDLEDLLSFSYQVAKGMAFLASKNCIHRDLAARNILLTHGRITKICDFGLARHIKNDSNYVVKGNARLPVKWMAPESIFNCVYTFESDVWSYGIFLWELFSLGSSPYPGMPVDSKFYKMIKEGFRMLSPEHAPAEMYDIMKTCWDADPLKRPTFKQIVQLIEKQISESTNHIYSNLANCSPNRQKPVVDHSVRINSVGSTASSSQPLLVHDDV
Protein kinase C epsilon type (Homo sapiens), sequence (Q02156 whole entry): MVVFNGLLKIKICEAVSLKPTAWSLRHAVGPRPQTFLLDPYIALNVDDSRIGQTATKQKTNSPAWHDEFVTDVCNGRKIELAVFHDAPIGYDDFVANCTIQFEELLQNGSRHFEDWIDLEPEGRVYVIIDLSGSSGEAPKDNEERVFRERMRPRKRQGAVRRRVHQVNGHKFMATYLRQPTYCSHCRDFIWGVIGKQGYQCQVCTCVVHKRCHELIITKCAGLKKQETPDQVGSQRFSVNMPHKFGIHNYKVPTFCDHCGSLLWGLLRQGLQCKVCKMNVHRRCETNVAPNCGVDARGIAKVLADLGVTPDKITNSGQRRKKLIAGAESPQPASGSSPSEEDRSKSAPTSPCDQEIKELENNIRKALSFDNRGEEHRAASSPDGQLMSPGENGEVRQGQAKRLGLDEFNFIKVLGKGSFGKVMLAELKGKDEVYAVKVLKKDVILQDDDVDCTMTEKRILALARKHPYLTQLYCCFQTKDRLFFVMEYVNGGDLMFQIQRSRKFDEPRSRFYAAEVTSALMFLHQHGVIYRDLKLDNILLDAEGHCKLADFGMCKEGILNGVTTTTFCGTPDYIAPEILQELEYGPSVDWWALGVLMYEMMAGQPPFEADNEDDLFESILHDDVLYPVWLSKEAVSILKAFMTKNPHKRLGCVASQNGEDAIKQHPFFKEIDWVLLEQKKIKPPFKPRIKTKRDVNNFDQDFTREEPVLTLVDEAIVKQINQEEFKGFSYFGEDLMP
Ribosomal protein S6 kinase alpha-6 (Homo sapiens), sequence (Q9UK32 whole entry): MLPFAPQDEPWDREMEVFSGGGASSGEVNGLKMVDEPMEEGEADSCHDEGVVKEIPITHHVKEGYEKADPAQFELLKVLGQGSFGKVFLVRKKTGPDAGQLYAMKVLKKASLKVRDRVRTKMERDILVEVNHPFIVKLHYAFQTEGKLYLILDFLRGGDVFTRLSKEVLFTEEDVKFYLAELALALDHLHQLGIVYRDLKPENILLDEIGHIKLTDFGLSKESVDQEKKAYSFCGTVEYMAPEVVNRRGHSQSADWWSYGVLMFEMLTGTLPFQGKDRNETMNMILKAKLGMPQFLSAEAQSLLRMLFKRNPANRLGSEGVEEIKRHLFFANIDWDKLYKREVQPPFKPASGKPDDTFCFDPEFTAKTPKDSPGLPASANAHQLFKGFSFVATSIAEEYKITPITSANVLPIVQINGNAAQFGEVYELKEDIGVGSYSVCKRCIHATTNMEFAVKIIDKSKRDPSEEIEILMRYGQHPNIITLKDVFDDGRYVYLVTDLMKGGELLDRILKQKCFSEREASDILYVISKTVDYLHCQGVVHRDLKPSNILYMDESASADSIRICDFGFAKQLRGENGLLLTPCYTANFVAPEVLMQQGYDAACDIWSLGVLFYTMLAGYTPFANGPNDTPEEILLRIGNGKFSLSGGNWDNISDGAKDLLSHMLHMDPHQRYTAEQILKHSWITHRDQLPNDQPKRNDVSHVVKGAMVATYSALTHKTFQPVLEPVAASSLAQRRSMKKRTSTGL
Phosphatidylinositol 5-phosphate 4-kinase type-2 beta (Homo sapiens), sequence (P78356 whole entry): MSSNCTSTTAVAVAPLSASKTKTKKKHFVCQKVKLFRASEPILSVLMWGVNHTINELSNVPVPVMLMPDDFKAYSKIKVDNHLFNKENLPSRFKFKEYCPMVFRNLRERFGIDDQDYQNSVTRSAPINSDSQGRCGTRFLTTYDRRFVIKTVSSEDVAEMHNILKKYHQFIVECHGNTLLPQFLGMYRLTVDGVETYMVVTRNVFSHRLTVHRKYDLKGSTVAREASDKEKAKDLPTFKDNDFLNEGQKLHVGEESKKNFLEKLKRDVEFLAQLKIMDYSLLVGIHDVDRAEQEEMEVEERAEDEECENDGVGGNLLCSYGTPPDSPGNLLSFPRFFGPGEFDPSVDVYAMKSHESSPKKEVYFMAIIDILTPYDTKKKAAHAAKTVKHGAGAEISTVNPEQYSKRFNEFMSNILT

CCS(=O)(=O)c1cc2cc(C[C@](O)(CC(C)(C)c3ccc(F)cc3C(N)=O)C(F)(F)F)[nH]c2cn1
residual activity [1]: 100% | residual activity [2]: 100% | residual activity [3]: 96% | residual activity [4]: 87% | residual activity [5]: 86% | residual activity [6]: 100% | residual activity [7]: 96% | residual activity [8]: 96% | residual activity [9]: 94% | residual activity [10]: 100% | residual activity [11]: 100% | residual activity [12]: 83% | residual activity [13]: 100% | residual activity [14]: 100% | residual activity [15]: 96% | residual activity [16]: 100% | residual activity [17]: 100% | residual activity [18]: 91% | residual activity [19]: 94% | residual activity [20]: 96% | residual activity [21]: 98% | residual activity [22]: 83% | residual activity [23]: 92% | residual activity [24]: 100% | residual activity [25]: 100% | residual activity [26]: 100% | residual activity [27]: 89% | residual activity [28]: 100% | residual activity [29]: 77% | residual activity [30]: 100% | residual activity [31]: 100% | residual activity [32]: 100% | residual activity [33]: 100% | residual activity [34]: 88% | residual activity [35]: 100% | residual activity [36]: 66% | residual activity [37]: 96% | residual activity [38]: 96% | residual activity [39]: 91% | residual activity [40]: 94% | residual activity [41]: 100% | residual activity [42]: 82% | residual activity [43]: 95% | residual activity [44]: 100% | inhibition [45]: 1.86%

CCS(=O)(=O)c1cc2cc(C[C@@](O)(CC(C)(C)c3ccc(F)cc3C(N)=O)C(F)(F)F)[nH]c2cn1
residual activity [1]: 99% | residual activity [2]: 71% | residual activity [3]: 100% | residual activity [4]: 100% | residual activity [5]: 66% | residual activity [6]: 81% | residual activity [7]: 97% | residual activity [8]: 100% | residual activity [9]: 100% | residual activity [10]: 96% | residual activity [11]: 100% | residual activity [12]: 69% | residual activity [13]: 72% | residual activity [14]: 84% | residual activity [15]: 100% | residual activity [16]: 99% | residual activity [17]: 100% | residual activity [18]: 83% | residual activity [19]: 86% | residual activity [20]: 67% | residual activity [21]: 51% | residual activity [22]: 82% | residual activity [23]: 85% | residual activity [24]: 100% | residual activity [25]: 100% | residual activity [26]: 100% | residual activity [27]: 79% | residual activity [28]: 92% | residual activity [29]: 100% | residual activity [30]: 79% | residual activity [31]: 77% | residual activity [32]: 100% | residual activity [33]: 78% | residual activity [34]: 82% | residual activity [35]: 100% | residual activity [36]: 74% | residual activity [37]: 85% | residual activity [38]: 100% | residual activity [39]: 74% | residual activity [40]: 71% | residual activity [41]: 0% | residual activity [42]: 80% | residual activity [43]: 84% | residual activity [44]: 100% | inhibition [45]: -0.62%
